Here are results for three molecules from ChEMBL document CHEMBL2074534, “In vitro P-glycoprotein affinity for atypical and conventional antipsychotics” (Life Sci, 2002).

SMILES strings stand for the structures.

By Km is commonly meant the substrate concentration at which the rate is half of its maximum.

The series deals with MDR1 (P-glycoprotein, ABCB1) (Homo sapiens, UniProt P08183). Nature of the series: TP_TRANSPORTER: ATP hydrolysis in membranes from MDR1-expressing insect cells. In kind it is functional, cell membranes, insect cell, Membrane.
MDR1 (P-glycoprotein, ABCB1), sequence (P08183 whole entry): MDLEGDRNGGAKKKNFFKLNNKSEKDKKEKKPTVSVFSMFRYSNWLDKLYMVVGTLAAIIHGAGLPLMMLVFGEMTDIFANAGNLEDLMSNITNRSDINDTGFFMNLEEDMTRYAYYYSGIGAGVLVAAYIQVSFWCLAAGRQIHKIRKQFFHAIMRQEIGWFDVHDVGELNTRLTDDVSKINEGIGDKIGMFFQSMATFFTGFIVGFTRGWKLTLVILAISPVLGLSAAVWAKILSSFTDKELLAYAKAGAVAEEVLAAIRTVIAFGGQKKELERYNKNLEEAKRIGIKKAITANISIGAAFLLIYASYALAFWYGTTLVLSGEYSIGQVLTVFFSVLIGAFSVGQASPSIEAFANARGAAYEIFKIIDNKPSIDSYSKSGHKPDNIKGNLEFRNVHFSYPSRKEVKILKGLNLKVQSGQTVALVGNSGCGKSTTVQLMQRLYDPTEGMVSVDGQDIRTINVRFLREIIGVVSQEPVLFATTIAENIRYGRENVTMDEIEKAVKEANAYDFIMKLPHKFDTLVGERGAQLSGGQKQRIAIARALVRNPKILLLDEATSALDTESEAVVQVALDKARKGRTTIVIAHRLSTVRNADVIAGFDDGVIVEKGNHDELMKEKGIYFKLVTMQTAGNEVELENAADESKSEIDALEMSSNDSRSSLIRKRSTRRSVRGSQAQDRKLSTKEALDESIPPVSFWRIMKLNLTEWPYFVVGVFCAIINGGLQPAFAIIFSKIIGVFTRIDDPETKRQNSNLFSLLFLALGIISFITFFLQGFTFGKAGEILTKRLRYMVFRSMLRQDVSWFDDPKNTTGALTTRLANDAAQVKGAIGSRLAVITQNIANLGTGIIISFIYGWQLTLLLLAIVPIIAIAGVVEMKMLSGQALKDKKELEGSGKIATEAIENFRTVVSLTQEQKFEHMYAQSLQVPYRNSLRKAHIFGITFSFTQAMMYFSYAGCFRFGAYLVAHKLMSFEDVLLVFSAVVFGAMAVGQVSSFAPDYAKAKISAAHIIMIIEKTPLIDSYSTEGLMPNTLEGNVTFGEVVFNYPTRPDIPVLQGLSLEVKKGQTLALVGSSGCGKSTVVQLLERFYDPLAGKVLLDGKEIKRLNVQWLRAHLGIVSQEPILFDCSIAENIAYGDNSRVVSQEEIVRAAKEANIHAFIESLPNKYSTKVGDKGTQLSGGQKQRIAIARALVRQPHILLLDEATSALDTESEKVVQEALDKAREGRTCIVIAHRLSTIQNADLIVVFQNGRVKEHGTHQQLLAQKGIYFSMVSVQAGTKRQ
As for `Cc1cc2c(s1)Nc1ccccc1N=C2N1CCN(C)CC1` [OLANZAPINE], the Km came out at 8.3 µM.
For `O=C(CCCN1CCC(O)(c2ccc(Cl)cc2)CC1)c1ccc(F)cc1` [HALOPERIDOL] the value was 33 µM.
In the case of `CN(C)CCCN1c2ccccc2Sc2ccc(Cl)cc21` [CHLORPROMAZINE], the Km was found to be 27.4 µM.
